In patent publication US9005677B2, “Autophagy enhancer for treatment of neurodegenerative diseases” (Macau University of Science and Technology, priority 2013, dated 2015):

System: PC-12 cells transfected with mutant huntingtin EGFP-HDQ74
Experiment: MTT viability of PC-12 cells expressing mutant huntingtin
Type: cell-based, rat
Conditions: 25 μmol/L, 2 days
Protocol: Cell cytotoxicity assay: Cytotoxicity was assessed using the 344,5-dimethylthiazol-2-yl)-2,5-diphenyltetrazolium bromide assay as described previously. PC-12 cells were transfected with or without mutant huntingtin EGFP-HDQ74 for 24 h. The PC-12 cells were then seeded on 96-well plates with 4000 cells per well and then exposed to the indicated concentrations of Onjisaponin B (25 μmol/L) for 2 days. Subsequently, 10 μL of MTT reagents was added to each well and incubated at 37° C. for 4 hours, followed by the addition of 100 μL solubilization buffer (10% SDS in 0.01 mol/L HCl) and overnight incubation. Absorbance at 585 nm was determined from each well on the next day. The percentage of cell viability was calculated using the following formula: Cell viability (%)=Cells number treated/Cells number DMSO control×100. Data was obtained from three independent experiments.

Q: Which “Toxicity in PC-12 cells expressing mutant huntingtin (cell viability, MTT)” value does the source give for `COc1ccc(/C=C/C(=O)O[C@@H]2[C@H](O[C@@H]3O[C@@H](C)[C@H](O)[C@@H](O)[C@H]3O)[C@@H](O[C@@H]3O[C@@H](C)[C@H](O[C@@H]4OC[C@@H](O[C@@H]5O[C@H](CO)[C@H](O)[C@H](O)[C@H]5O)[C@H](O)[C@H]4O)[C@@H](O)[C@H]3O)[C@H](OC(=O)[C@]34CCC(C)(C)C[C@H]3C3=CC[C@@H]5[C@@]6(C)C[C@H](O)[C@H](O[C@@H]7O[C@H](CO)[C@@H](O)[C@H](O)[C@H]7O)[C@@](C)(C(=O)O)[C@@H]6CC[C@@]5(C)[C@]3(CO)CC4)O[C@@H]2C)cc1` [Onjisaponin B] here?
A: reduced toxicity
